Laboratory results as given in patent publication US10945980B2, “Treatment for myopia” (The University of Newcastle, priority 2016, dated 2021).

What was measured:
Format in all cases: in vivo, guinea pig (Cavia porcellus)
[1] = system: form deprivation myopia in guinea pigs; experiment: Intravitreal L-arginine in form deprivation (FD) myopia, 3 days diffuser wear
Procedure: Fifty-seven pigmented guinea pigs (Cavia porcellus) were sourced from the University of Newcastle and housed as described in Example 1. Animals were provided with food and water ad libitum and the room temperature was maintained at 22° C. The University of Newcastle under Australian legislative requirements approved all procedures.
Animals wore classical form diffusers made of translucent moulded Perspex (0.8 mm thickness, 24% transmission) on their right eyes. Diffusers were mounted onto plastic washers backed with Velcro® and attached to mating Velcro® arcs which were affixed above and below the eye.
Animals were assigned to one of seven treatment groups (Table 1). From seven days of age, five of these groups were form deprived in the right eye for 3 days with a diffuser (two groups wore no diffusers and served as controls for form deprived animals). Six groups of animals were intravitreally injected with either L-arginine or physiological saline once per day, just before lights came on at 10 am. One group wore diffusers, but received no injection as a control. At ten days of age, cycloplegia was induced in all animals and refractive error and ocular components were measured. Two retinas, one a saline control and another that had been injected with the highest dose of L-arginine, were analysed by histochemistry for morphological markers of L-arginine induced toxicity.
To establish the size of the guinea pig vitreous, and thus the molarity of the substrate within the eye, ten vitreous chambers were extracted from ten eyes. The volume of the vitreous was 125 μl. Based on this, three drug doses of L-arginine were employed: low (0.4 mM), medium (2.2 mM) and high (non-toxic: 9.3 mM) (See Table 1). A 30 gauge Hamilton syringe was used to slowly inject into the vitreous through the temporal sclera of right eyes, approximately 2 mm posterior to the limbus. All injections were 10 μl of either physiological saline (0.9%) or L-arginine dissolved in saline (pH 7.4 for all injections).
Cycloplegia was induced as described in Example 1, and refractive error subsequently measured as described in Example 1.
Ocular length and axial components were also determined as described in Example 1.
The data presented are means±standard errors of the mean. All figures and statistics are based on the difference between the lens-wearing eye and the fellow non lens-wearing eye and are referred to as relative refractive error and relative ocular distances. Statistical comparisons between lens wearing groups were based on one way ANOVAs followed by Holm-Sidak post hoc tests to account for family-wise error. Correlations were based on Pearson's regression analysis. Statistical analysis used Prism®, Graph Pad Software, Inc. V 6.

[2] = system: nNOS; experiment: nNOS immunohistochemistry of retinal whole mounts 3 hours after intravitreal injection
Procedure: Two experimental protocols were used. In Experiment 1, young guinea pigs were randomly divided into three drug treatment groups: no injection (n=14), vehicle (n=14) and 0.2 mM L-arginine (n=16). Animals in the latter two groups received a daily 10 μl intravitreal injection in one eye at 7, 8 and 9 days of age (Table 2). […] The fellow eye was untreated. At 10 days of age, the −6D lens was removed, animals were cyclopleged and refractive error was measured in both eyes. In Experiment 2, sixteen guinea pigs received an intravitreal injection of either vehicle (n=8) or 0.2 mM L-arginine (n=8) into their untreated eye at 16 days of age (Table 2). Injections were made 1 hour after the beginning of their 12 hr light cycle. 3 hours after injection, light adapted animals were euthanized, and the injected eye removed and processed using immunohistochemistry.
To make the L-arginine (LA), 217.75 mg of LA (Sigma, A5006) was added to 10 ml of isotonic saline (Pfizer) to create 125 mM fresh stock each day. Hydrochloric acid was used to lower the stock to a pH of 7.4. The stock was diluted with isotonic saline to produce a final dose of 0.185 mM of LA (˜0.2 mM) at the level of the retina based on a vitreous volume of 125 μl and an injection volume of 10 μl. Vehicle injections consisted of 10 μl of isotonic saline (pH 7.4).
Guinea pigs were briefly anaesthetised with isoflurane in oxygen and intravitreal injections were made through the pars plana ˜1 mm posterior to the limbus at an angle of approximately 40° to avoid contact with the crystalline lens and retina. Drugs were delivered using a 0.3 ml syringe (Diabetic BD UltraFine II) with a 31 gauge needle. After the injection, antibiotic gel (Conoptal) was applied lightly to the cornea, and animals recovered rapidly in a warm darkened box.
In Experiment 2, three hours after their intravitreal injection, animals were anaesthetised with isoflurane in oxygen and then euthanized with an […] injection of sodium pentobarbitone (160 mg/kg; Lethabarb) into the heart. The eye that had received treatment was then enucleated. […]

[3] = system: lens-induced myopia in guinea pigs; experiment: Intravitreal L-arginine in lens-induced (−6D) myopia, 3 days; conditions: 0.2 mM L-arginine daily intravitreal at 7, 8, 9 days of age, −6D lens 3 days; not significant p=0.169

N=C(N)NCCC[C@H](N)C(=O)O [L-arginine]
relative refractive error compared with animals that had no form deprivation ([1]; FD 2.2 mM and FD 9.3 mM groups, daily intravitreal injection, 3 days FD): not significantly different from animals that had no form deprivation
ocular length, shortening relative to FD NIL ([1]; FD 9.3 mM (high dose, intravitreal) vs form deprivation only, p<0.001): −484 μm
vitreous chamber depth, difference FD 0 mM vs FD 9.3 mM ([1]; FD + vehicle vs FD + 9.3 mM L-arginine, did not reach significance, p=0.12): 215 μm
choroid thickness, FD 0 mM thinner than FD 9.3 mM ([1]; FD + vehicle vs FD + 9.3 mM L-arginine, not significant, p=0.14): 31 μm
ocular length, FD 0 mM greater than FD 9.3 mM ([1]; FD + vehicle vs FD + high dose L-arginine 9.3 mM intravitreal, p<0.001): 403 μm
vitreous chamber depth, FD NIL longer than FD 9.3 mM ([1]; form deprivation only vs FD + 9.3 mM L-arginine intravitreal, p<0.001): 484 μm
choroid thickness, difference FD NIL vs FD 9.3 mM ([1]; form deprivation only vs FD + 9.3 mM L-arginine intravitreal, p=0.03): −39 μm
density of NOS displaced amacrine cells (DACs) vs vehicle injected eyes ([2]; single intravitreal 0.2 mM L-arginine, 3 hours after injection, each eccentricity from the optic nerve, p<0.001): significantly higher density
density of Type I amacrine cells expressing nNOS vs vehicle injected group ([2]; single intravitreal 0.2 mM L-arginine, 3 hours after injection, p<0.001): significantly higher density
increase of expression of nNOS in the retina ([2]; single intravitreal injection of L-arginine (0.2 mM)): approximately 20%
interocular difference in refractive error (lens-wearing eye more hyperopic than fellow eye) [3]: 2.00 D
